{
  "source": "ChEMBL document CHEMBL1138588",
  "about": "“Hedgehog-Gli signaling pathway inhibitors as anticancer agents” (J Med Chem, 2009)",
  "key": {"Zinc finger protein GLI1": {"target": "T1, Zinc finger protein GLI1 (Homo sapiens, UniProt P08151)", "T1 sequence (P08151 whole entry)": "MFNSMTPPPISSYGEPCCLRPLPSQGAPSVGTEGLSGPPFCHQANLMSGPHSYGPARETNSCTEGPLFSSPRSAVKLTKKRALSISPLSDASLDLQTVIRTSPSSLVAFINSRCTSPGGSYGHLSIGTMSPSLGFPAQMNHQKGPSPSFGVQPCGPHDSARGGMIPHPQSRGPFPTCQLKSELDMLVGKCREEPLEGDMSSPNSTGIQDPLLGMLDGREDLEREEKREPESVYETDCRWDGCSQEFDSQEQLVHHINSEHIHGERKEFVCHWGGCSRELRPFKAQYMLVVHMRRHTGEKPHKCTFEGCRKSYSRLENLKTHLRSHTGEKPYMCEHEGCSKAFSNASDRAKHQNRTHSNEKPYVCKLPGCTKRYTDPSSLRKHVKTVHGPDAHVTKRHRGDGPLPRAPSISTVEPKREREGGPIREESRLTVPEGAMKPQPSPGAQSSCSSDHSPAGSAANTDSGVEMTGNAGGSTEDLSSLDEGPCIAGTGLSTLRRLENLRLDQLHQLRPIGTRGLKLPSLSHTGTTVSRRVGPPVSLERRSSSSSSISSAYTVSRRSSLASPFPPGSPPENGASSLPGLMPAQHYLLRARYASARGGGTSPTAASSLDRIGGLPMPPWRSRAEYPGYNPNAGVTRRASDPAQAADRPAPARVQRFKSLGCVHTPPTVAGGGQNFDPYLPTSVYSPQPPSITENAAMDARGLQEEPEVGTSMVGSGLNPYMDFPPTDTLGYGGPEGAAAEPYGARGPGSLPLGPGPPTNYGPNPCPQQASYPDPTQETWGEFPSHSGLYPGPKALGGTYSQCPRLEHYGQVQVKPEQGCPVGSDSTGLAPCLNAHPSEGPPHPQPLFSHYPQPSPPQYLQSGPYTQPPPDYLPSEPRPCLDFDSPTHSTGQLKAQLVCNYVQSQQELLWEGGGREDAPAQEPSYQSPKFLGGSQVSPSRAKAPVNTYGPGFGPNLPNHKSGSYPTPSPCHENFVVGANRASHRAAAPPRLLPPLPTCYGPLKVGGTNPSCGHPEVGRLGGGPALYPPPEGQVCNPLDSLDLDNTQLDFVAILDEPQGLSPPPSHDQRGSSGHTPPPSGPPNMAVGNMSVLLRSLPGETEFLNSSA", "experiment": "Inhibition of Gli1-mediated transcription expressed in human PANC1 cells", "assay_type": "cell-based", "details": "panc-1"}, "[1]": {"experiment": "Selectivity for Gli over Gli2"}, "PANC-1": {"system": "PANC-1", "experiment": "Selectivity for human PANC1 cells over mouse C3H10/T1/2 cells"}, "[2]": {"experiment": "Antitumor activity against human medulloblastoma cells", "assay_type": "functional", "details": "Medulloblastoma cell"}, "Mus musculus": {"system": "Mus musculus", "experiment": "Antitumor activity against transgenic mouse medulloblastoma model with loss of function mutations in Ptch1 and Hic1 gene administered as once daily oral dose", "assay_type": "functional"}, "[3]": {"experiment": "Growth inhibition of human L3.6p1 cells", "assay_type": "functional"}, "[4]": {"experiment": "Growth inhibition of human Panc 05.04 cells", "assay_type": "functional"}, "BXPC-3 [5]": {"system": "BXPC-3", "experiment": "Growth inhibition of human BxPC3 cells", "assay_type": "functional"}, "[6]": {"experiment": "Growth inhibition of human D283 MED cells", "assay_type": "functional"}, "Daoy": {"system": "Daoy", "experiment": "Growth inhibition of human DaOY cells", "assay_type": "functional"}, "[7]": {"experiment": "In vivo antitumor activity against human L3.6s1 cells assessed as inhibition of tumor growth", "assay_type": "functional"}, "BXPC-3 [8]": {"system": "BXPC-3", "experiment": "In vivo antitumor activity against human BxPC3 cells assessed as inhibition of tumor growth", "assay_type": "functional"}},
  "data": [
    {"smiles": "C=C(C)[C@@H]1CC[C@]2(C(=O)O)CC[C@]3(C)[C@H](CC[C@@H]4[C@@]5(C)C[C@@H](O)[C@H](O)C(C)(C)[C@@H]5CC[C@]43C)[C@@H]12", "note": "[ALPHITOLIC ACID]", "values": [
      {"measurement": "IC50", "setting": "Zinc finger protein GLI1", "result": 42000, "unit": "nM"}
    ]},
    {"smiles": "C[C@@]12C[C@H]3OC(=O)[C@@H]1CO[C@]14O[C@]5([C@H]2C1=O)[C@@](O)(CC[C@H]1[C@H]4C[C@H]2O[C@]24CC=CC(=O)[C@]14C)C(=O)O[C@@]35C", "note": "[PHYSALIN F]", "values": [
      {"measurement": "Ratio IC50", "setting": "[1]", "result": 2},
      {"measurement": "Selectivity Index", "setting": "PANC-1", "result": 3}
    ]},
    {"smiles": "COc1cc(OC)cc(C(=O)Nc2ccc(Cl)c(-c3nc4cc(N(C)C)ccc4[nH]3)c2)c1", "values": [
      {"measurement": "IC50", "setting": "[2]", "result": 10000, "unit": "nM"}
    ]},
    {"smiles": "CC1=C2C[C@H]3[C@@H](CC[C@@H]4CNC(=O)CC[C@@]43C)[C@@H]2CC[C@@]2(C1)O[C@@H]1C[C@H](C)CN[C@H]1[C@H]2C", "values": [
      {"measurement": "ED50", "setting": "Mus musculus", "result": "< 7.5", "unit": "mg/kg"}
    ]},
    {"smiles": "O=C1NCc2c1c1c3ccccc3[nH]c1c1[nH]c3ccccc3c21", "note": "[STAUROSPORINONE]", "values": [
      {"measurement": "Selectivity Index", "setting": "PANC-1", "result": 3}
    ]},
    {"smiles": "C[C@]12C(=O)C=CCC1=CC[C@@H]1[C@@H]2CC[C@]2(O)C(=O)O[C@@]3(C)[C@H]4C[C@]5(C)[C@@H](CO[C@@]16O[C@@]32[C@H]5C6=O)C(=O)O4", "note": "[PHYSALIN B]", "values": [
      {"measurement": "Ratio IC50", "setting": "[1]", "result": 2},
      {"measurement": "Selectivity Index", "setting": "PANC-1", "result": 3}
    ]},
    {"smiles": "C=C(C)[C@@H]1CC[C@]2(C(=O)O)CC[C@]3(C)[C@H](CC[C@@H]4[C@@]5(C)[C@H](C=O)[C@@H](O)C(C)(C)[C@@H]5CC[C@]43C)[C@@H]12", "note": "[COLUBRINIC ACID]", "values": [
      {"measurement": "IC50", "setting": "Zinc finger protein GLI1", "result": 38000, "unit": "nM"}
    ]},
    {"smiles": "CCOc1ccc(Nc2nc(-c3c(C)nc4ccccn34)cs2)cc1", "values": [
      {"measurement": "GI50", "setting": "[3]", "result": 3, "unit": "nM"},
      {"measurement": "GI50", "setting": "[4]", "result": 3, "unit": "nM"},
      {"measurement": "GI50", "setting": "BXPC-3 [5]", "result": 3, "unit": "nM"},
      {"measurement": "GI50", "setting": "[6]", "result": 3, "unit": "nM"},
      {"measurement": "GI50", "setting": "Daoy", "result": 3, "unit": "nM"},
      {"measurement": "inhibition (INH)", "setting": "[7]", "result": 30, "unit": "%"},
      {"measurement": "inhibition (INH)", "setting": "BXPC-3 [8]", "result": 30, "unit": "%"}
    ]},
    {"smiles": "C=C(C)[C@@H]1CC[C@]2(C(=O)O)CC[C@]3(C)[C@H](CC[C@@H]4[C@@]5(C)CC[C@H](O)C(C)(C)[C@@H]5CC[C@]43C)[C@@H]12", "note": "[BETULINIC ACID]", "values": [
      {"measurement": "IC50", "setting": "Zinc finger protein GLI1", "result": 32000, "unit": "nM"}
    ]}
  ]
}
